Reference: patent publication US20220259235A1, “EGFR Inhibitor, Composition, and Preparation Method Therefor” (BETTA PHARMACEUTICALS CO., LTD, priority 2019, published 2022)

Tests used:
EGFR Δ19del/T790M/C797S = EGFR Δ19del/T790M/C797S (Homo sapiens, UniProt P00533, T790M/C797S, form not given); experiment: EGFR Δ19del/T790M/C797S kinase test (mobility shift, Caliper EZ Reader); assay type: biochemical; conditions: kinase enzymatic activity, numeric values
Method: Mobility variation analysis was performed to determine the affinity of the compound for EGFRΔ19del/T790M/C797S. The enzymatic reaction scheme is as follows:
1. Prepare 1* kinase buffer as follows:
2. Preparation of compound concentration gradient: The test compound was tested with an initial concentration of 3000 nM or 100 nM, diluted in a 384 source plate to a 100% DMSO solution with 100-fold final concentration, and the compound is 3-fold diluted with Precision to 10 concentrations. A dispenser Echo 550 was used to transfer 250 nL 100-fold final concentration of the compound to the target plate OptiPlate-384F.
3. Prepare 2.5-fold final concentration of kinase solution with 1×Kinase buffer;
4. Add 10 μL of 2.5-fold final concentration of kinase solution to the compound well and the positive control well; add 10 μL of 1×Kinase buffer to the negative control well.
5. Centrifuge at 1000 rpm for 30 seconds, shake the reaction plate for well mixation, and then incubate at room temperature for 10 minutes.
6. Prepare a mixture of ATP and Kinase substrate at 5/3-fold final concentration with 1×Kinase buffer.
7. Add 15 μL mixture of 5/3-fold final concentration of ATP and substrate to start reaction.
8. Centrifuge the 384-well plate at 1000 rpm for 30 seconds, shake it well and then incubate it at room temperature for corresponding time.
9. Add 30 μL of stop detection solution to stop the kinase reaction, centrifuge at 1000 rpm for 30 seconds, shake it well.
10. Read conversion rate with Caliper EZ Reader.
% Inhibition=((Conversion%_max−Conversion%_sample)/(Conversion%_max−Conversion%_min))*100
Wherein: Conversion%_sample is the sample conversion rate reading; Conversion%_min: Mean value of negative control wells, representing the conversion rate reading of wells without enzymatic activity; Conversion%_max: Mean value of positive control wells, representing the conversion rate reading of wells without compound inhibition.
The dose-effect curve was fitted with concentration log value as X-axis and percentage inhibition rate as Y-axis. Log (inhibitor) vs. Response—Variable Slope of GraphPad Prism 5 was used to fit the dose-effect curve to obtain IC50 value of enzymatic activity for each compound.
The calculation formula is as Y=Bottom (Top−Bottom)/(1+10^((LogIC50−X)*HillSlope)).
As illustrated in examples, IC50 value is within the following range for the compound of the present invention: “A” represents “IC50≤1nM”; “B” represents “1 nM<IC50≤100nM”.

[1] = Liver microsomal clearance test, human; assay type: in vitro ADME; conditions: Human liver microsomes, 0.5 mg/mL, NADPH
Method: (§1) Test 3 Liver Microsomal Clearance Test
(§2) 1. Prepare 0.5 mg/mL liver microsome diluent containing K-butter and MgCl2:
(§3) 2.1 Take 356 μL of the liver microsome diluent prepared above and add it to the preset wells of the incubation plate, the number of multiple wells n=1, mark it as the incubation plate.
(§4) 2.2 Take 4 μL of the positive control compound Verapamil (50 μM) and the working solution of the test compound (200 μM) into the above incubation plate containing 356 μL of liver microsome diluent, and mix well (The dilution solvent from the stock solution to the working solution is a mixed solvent of acetonitrile: methanol: water=1:1:2, and the final concentration of DMSO is ≤0.5%),
(§5) 2.3 Place the incubation plate in a 37° C. thermostatic oscillator (at shaking speed of 100 rpm) for pre-incubation with 10 min.
(§6) 2.4 Add 40 μL of 10 mM NADPH (add 40 μL of K-buffer to the wells without NADPH) to each reaction well to start the reaction and start timing.
(§7) 3. Sample collection and treatment:
(§8) 3.1 After adding NADPH to start the reaction, immediately take out 50 μL of the sample and add it to the precipitation plate pre-added with 400 μL of stop solution, and shake on an oscillator at 600 rpm for 5 min at room temperature as a 0 min sample.
(§9) 3.2 At the predetermined time points of 5 min, 15 min and 45 min, take out 50 μL of sample from the incubation plate and add it to the precipitation plate. The subsequent steps were the same as the treatment of 0 min sample. 3.3 After balancing, centrifuge above precipitation plate at 3200 rpm for 10 min at 4° C.
(§10) 3.4 Take 50 μL of the supernatant after centrifugation and add it to pre-added 20% acetonitrile water at appropriate proportion, shake on an oscillator at 600 rpm for 2 min at room temperature, mix well, and put it into the LC-MS/MS sampler for sample injection.
(§11) Analysis of Experimental Data
1. […]

[2] = Liver microsomal clearance test, dog; assay type: in vitro ADME; conditions: Dog liver microsomes, 0.5 mg/mL, NADPH
Method: as §1, §2, §3, §4, §5, §6, §7, §8, §9, §10, §11
1. […]

Chain of EGFR Δ19del/T790M/C797S (P00533 with tags, fused parts or gaps DEL746-750/T790M/C797S, form open): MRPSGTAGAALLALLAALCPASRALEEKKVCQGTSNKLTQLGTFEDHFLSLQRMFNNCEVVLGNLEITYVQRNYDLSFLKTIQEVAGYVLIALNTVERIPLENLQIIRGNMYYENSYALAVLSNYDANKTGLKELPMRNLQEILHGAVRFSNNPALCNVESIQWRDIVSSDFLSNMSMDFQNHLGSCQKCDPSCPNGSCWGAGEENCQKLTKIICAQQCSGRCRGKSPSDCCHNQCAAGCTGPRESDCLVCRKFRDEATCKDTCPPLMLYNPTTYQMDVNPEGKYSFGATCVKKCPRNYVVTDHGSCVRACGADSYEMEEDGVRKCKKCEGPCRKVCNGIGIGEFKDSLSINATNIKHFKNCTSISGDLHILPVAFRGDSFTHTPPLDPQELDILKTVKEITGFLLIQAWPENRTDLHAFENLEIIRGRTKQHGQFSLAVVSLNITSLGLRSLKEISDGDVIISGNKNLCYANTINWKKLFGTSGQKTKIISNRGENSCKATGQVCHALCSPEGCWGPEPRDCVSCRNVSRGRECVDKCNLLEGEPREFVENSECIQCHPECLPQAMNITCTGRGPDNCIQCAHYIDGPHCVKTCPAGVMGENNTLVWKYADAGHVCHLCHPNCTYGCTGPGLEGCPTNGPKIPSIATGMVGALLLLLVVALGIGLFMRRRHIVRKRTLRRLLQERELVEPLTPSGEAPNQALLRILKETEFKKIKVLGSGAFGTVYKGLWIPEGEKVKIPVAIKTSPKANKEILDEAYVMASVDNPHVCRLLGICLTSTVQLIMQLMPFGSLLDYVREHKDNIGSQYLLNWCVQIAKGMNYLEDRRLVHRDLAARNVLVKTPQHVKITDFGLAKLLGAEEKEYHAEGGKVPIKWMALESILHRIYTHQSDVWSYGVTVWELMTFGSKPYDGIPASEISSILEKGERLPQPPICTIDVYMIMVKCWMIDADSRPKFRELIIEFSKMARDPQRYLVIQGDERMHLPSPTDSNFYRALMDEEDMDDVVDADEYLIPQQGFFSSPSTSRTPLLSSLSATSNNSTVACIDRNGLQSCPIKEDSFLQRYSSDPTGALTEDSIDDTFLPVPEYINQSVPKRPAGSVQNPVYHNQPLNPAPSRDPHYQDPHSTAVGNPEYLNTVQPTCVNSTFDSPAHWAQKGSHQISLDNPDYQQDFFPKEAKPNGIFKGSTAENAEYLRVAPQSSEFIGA

- IC50 (EGFR Δ19del/T790M/C797S): 0.3 nM
- Instrinsic clearance of liver microsomal protein, CLint [1]: 2.4 μL/min/mg proteins
- Instrinsic clearance of liver microsomal protein, CLint [2]: 1 μL/min/mg proteins
SMILES: COc1cc(N2CCC(N3CCN(C)CC3)CC2)c(-c2cnn(C)c2)cc1Nc1ncc(Cl)c(Nc2ccc3nccnc3c2P(C)(C)=O)n1 [Compound 1, (6-((5-Chloro-2-((2-methoxy-5-(1-methyl-1hydro-pyrazol-4-yl)-4-(4-(4-methylpiperazine-1-yl)piperidin-1-yl)phenyl)amino)pyrimidin-4-yl)amino)quinoxalin-5-yl)dimethylphosphine oxide]
